Drawing on ChEMBL document CHEMBL5365493 (J Med Chem, 2023), this text covers IC50 for 17 molecules.

For one assay, the target named is Dipeptidyl peptidase 4 (Homo sapiens, UniProt P27487). Nature of the assay: Inhibition of human seminal plasma DPP4 using Ala-Pro-paranitroanilide as substrate incubated for 15 mins by […]. In kind it is cell-free.
The target of a further assay is Dipeptidyl peptidase 2 (Homo sapiens, UniProt Q9UHL4). Briefly: Inhibition of human recombinant DPP2 using Lys-Ala-pNA as substrate incubated for 15 mins by […].
For another assay, the target named is T1, Prolyl endopeptidase (Homo sapiens, UniProt P48147).
T1 sequence (P48147 whole entry): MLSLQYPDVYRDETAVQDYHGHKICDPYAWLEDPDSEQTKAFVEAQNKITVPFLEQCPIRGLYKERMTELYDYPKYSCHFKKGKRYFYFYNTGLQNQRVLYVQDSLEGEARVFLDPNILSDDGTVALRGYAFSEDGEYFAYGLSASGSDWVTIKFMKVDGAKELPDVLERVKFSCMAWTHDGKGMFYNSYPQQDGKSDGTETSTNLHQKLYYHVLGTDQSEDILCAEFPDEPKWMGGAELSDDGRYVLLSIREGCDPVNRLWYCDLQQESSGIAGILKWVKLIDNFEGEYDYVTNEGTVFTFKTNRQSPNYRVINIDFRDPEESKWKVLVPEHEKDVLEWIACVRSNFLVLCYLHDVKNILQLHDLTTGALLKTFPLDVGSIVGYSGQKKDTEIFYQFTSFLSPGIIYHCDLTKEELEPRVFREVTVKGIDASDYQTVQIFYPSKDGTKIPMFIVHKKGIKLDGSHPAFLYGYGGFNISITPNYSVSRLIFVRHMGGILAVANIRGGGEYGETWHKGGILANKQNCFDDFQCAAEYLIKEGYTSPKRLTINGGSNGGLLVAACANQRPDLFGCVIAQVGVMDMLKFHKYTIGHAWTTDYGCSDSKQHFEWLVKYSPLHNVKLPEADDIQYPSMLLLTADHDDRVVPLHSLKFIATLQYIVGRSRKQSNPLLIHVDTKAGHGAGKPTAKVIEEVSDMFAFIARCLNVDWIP
Briefly: Inhibition of human recombinant PREP expressed in Escherichia coli BL21(DE3) using N-succinyl-Gly-Pro-AMC as substrate incubated for 15 mins by fluorescence based analysis.

The next assay has as its target Dipeptidyl peptidase 8 (Homo sapiens, UniProt Q6V1X1). Nature of the assay: Inhibition of N-terminal human recombinant DPP8 expressed in Sf9 insect cells using Ala-Pro-paranitroanilide as substrate incubated for 15 mins by […].
The target of the next assay is Dipeptidyl peptidase 9 (Homo sapiens, UniProt Q86TI2). Briefly: Inhibition of N-terminal human recombinant DPP9 expressed in Sf9 insect cells using Ala-Pro-paranitroanilide as substrate incubated for 15 mins by […].
Dipeptidyl peptidase 9, sequence (Q86TI2 whole entry): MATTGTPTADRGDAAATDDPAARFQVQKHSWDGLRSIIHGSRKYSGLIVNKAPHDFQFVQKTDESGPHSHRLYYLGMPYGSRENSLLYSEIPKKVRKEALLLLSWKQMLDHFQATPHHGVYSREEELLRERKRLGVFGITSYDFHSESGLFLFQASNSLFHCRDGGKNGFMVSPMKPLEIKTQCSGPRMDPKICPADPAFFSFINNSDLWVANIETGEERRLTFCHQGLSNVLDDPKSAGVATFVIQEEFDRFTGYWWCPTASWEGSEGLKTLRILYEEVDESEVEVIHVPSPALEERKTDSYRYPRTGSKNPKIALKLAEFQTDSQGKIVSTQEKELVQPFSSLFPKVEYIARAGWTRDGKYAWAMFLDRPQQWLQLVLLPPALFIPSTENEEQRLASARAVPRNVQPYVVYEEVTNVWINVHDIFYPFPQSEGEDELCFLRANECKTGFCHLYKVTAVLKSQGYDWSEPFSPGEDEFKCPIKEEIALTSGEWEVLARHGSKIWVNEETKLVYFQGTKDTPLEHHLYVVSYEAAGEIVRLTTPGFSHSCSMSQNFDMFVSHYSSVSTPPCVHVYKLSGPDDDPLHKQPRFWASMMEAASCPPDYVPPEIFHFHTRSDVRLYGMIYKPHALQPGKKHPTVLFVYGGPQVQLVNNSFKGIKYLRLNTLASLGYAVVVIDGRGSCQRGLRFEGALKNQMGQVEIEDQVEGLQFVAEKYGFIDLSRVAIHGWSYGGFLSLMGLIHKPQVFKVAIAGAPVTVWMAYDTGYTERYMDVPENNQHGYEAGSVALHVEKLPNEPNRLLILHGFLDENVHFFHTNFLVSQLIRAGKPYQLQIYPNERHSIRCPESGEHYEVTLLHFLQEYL

The structures appear in SMILES notation. pIC50: −log10 of the molar value.

Dipeptidyl peptidase 4, sequence (P27487 whole entry): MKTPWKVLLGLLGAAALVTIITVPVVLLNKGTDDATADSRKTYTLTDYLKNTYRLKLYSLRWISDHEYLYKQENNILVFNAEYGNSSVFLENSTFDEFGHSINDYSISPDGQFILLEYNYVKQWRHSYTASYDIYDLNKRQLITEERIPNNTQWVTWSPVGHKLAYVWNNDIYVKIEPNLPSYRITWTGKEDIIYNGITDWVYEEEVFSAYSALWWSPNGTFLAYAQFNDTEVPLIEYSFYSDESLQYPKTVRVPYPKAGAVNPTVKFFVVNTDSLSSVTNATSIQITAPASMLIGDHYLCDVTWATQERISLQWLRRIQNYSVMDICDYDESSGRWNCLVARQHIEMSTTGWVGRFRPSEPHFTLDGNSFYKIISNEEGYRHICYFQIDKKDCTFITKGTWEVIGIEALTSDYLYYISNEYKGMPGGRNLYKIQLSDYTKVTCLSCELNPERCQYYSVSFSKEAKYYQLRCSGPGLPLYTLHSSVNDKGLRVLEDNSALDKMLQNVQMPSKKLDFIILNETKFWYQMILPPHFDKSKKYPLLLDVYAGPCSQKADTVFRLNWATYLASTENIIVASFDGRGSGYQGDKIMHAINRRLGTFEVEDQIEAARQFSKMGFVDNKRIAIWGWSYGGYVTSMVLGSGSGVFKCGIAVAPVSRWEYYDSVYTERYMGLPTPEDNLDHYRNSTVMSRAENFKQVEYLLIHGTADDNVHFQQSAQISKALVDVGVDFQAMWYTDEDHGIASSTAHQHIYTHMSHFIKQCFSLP
Dipeptidyl peptidase 8, sequence (Q6V1X1 whole entry): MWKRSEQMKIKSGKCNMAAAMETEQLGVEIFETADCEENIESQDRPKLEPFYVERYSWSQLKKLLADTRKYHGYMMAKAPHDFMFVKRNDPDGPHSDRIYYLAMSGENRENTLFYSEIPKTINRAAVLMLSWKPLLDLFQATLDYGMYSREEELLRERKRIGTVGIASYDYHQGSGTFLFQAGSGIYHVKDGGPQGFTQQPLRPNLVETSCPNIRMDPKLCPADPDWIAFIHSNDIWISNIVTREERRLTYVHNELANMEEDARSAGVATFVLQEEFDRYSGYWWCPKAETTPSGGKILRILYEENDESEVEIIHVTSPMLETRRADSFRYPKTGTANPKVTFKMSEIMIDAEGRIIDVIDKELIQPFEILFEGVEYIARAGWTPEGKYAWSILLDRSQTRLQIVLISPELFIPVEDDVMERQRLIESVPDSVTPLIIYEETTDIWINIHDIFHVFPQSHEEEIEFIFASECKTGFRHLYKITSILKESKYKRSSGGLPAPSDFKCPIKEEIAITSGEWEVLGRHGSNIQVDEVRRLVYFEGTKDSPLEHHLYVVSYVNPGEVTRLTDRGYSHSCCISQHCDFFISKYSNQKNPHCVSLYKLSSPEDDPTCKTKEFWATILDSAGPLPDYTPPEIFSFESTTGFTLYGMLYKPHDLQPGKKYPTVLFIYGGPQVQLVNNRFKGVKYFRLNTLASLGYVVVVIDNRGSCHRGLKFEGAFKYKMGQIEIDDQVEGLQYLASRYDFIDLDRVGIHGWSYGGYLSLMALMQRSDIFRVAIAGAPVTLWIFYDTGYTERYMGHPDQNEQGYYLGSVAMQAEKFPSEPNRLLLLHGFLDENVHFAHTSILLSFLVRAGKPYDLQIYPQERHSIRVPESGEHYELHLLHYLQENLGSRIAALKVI

As a reminder, the pIC50 is the IC50 on a negative log10 scale, so that one unit is a factor of ten. As to `CCCCNC12CC3CC(C1)CC(NCC(=O)N1Cc4ccccc4C1)(C3)C2`, the negative logarithm of the IC50 (pIC50) at Dipeptidyl peptidase 4 was under 5.00; on Dipeptidyl peptidase 2, under 5.30; on Prolyl endopeptidase it was under 5.00; at Dipeptidyl peptidase 8 it was under 5.00.
Take `O=C(CC12CC3CC(CC(O)(C3)C1)C2)NC12CC3CC(CC(NCC(=O)N4Cc5ccccc5C4)(C3)C1)C2`: the pIC50 was under 5.00 against Dipeptidyl peptidase 4; under 5.30 at Dipeptidyl peptidase 2; 6.30 on Dipeptidyl peptidase 9; under 5.00 on Prolyl endopeptidase; 5.34 on Dipeptidyl peptidase 8.
With `CC(C)(C)NC(=O)NC12CC3CC(CC(NCC(=O)N4Cc5ccccc5C4)(C3)C1)C2`, the pIC50 at Dipeptidyl peptidase 4 is under 5.00; at Dipeptidyl peptidase 2, under 5.30; at Dipeptidyl peptidase 9, 7.30; at Prolyl endopeptidase, under 5.00.
On to `O=C(NCCCc1ccccc1)OC12CC3CC(CC(NCC(=O)N4Cc5ccccc5C4)(C3)C1)C2`, for which the figures for the pIC50 at Dipeptidyl peptidase 4, at Dipeptidyl peptidase 2 and on Prolyl endopeptidase were under 5.00, under 5.30 and under 5.00, respectively.
As for `O=C(N[C@H]1CC[C@H](O)CC1)OC12CC3CC(CC(NCC(=O)N4Cc5ccccc5C4)(C3)C1)C2`, the pIC50 on Dipeptidyl peptidase 4 was under 5.00; on Dipeptidyl peptidase 2, under 5.30; on Prolyl endopeptidase, under 5.00.
Consider `CC(C)(C)OC(=O)NC12CC3CC(CC(NCC(=O)N4Cc5ccccc5C4)(C3)C1)C2`, for which the negative logarithm of the IC50 (pIC50) was under 5.00 against Dipeptidyl peptidase 4, under 5.30 at Dipeptidyl peptidase 2 and under 5.00 at Prolyl endopeptidase.
With `O=C(NCc1ccccc1)NC12CC3CC(CC(NCC(=O)N4Cc5ccccc5C4)(C3)C1)C2`, the pIC50 on Dipeptidyl peptidase 4 is under 5.00; at Dipeptidyl peptidase 2, under 5.30; at Dipeptidyl peptidase 9, 7.40; at Prolyl endopeptidase, under 5.00.
Take `O=C(NCc1ccccc1)OC12CC3CC(CC(NCC(=O)N4Cc5ccccc5C4)(C3)C1)C2`: the pIC50 at Dipeptidyl peptidase 4 was under 5.00; at Dipeptidyl peptidase 2 it was under 5.30; on Dipeptidyl peptidase 9, 7.15; at Prolyl endopeptidase, under 5.00.
Take `O=C(NCc1ccncc1)OC12CC3CC(CC(NCC(=O)N4Cc5ccccc5C4)(C3)C1)C2`: the pIC50 at Dipeptidyl peptidase 4 is under 5.00; at Dipeptidyl peptidase 2, under 5.30; at Prolyl endopeptidase it was under 5.00.
`O=C(NC(c1ccccc1)c1ccccc1)OC12CC3CC(CC(NCC(=O)N4Cc5ccccc5C4)(C3)C1)C2`: the pIC50 against Dipeptidyl peptidase 4 was under 5.00; on Dipeptidyl peptidase 2 it was under 5.30; at Dipeptidyl peptidase 9, 7.85; on Prolyl endopeptidase, under 5.00.
With `N#Cc1ccc(CCC(=O)NC23CC4CC(CC(NCC(=O)N5Cc6ccccc6C5)(C4)C2)C3)cc1`, the negative logarithm of the IC50 (pIC50) at Dipeptidyl peptidase 4 was under 5.00; at Dipeptidyl peptidase 2, under 5.30; on Prolyl endopeptidase, under 5.30.
For the molecule `O=C(NCc1ccc(F)cc1F)OC12CC3CC(CC(NCC(=O)N4Cc5ccccc5C4)(C3)C1)C2`, the negative logarithm of the IC50 (pIC50) was under 5.00 at Dipeptidyl peptidase 4, under 5.30 on Dipeptidyl peptidase 2, under 5.00 at Prolyl endopeptidase and 6.10 on Dipeptidyl peptidase 8.
Turning to `NC12CC3CC(C1)CC(NCC(=O)N1Cc4ccc(F)cc4C1)(C3)C2`, the pIC50 was under 5.00 against Dipeptidyl peptidase 4, under 5.30 at Dipeptidyl peptidase 2 and under 5.00 on Prolyl endopeptidase.
With `O=C(NC(c1ccc(F)cc1)c1ccc(F)cc1)OC12CC3CC(CC(NCC(=O)N4Cc5ccccc5C4)(C3)C1)C2`, the negative-log IC50 (pIC50) at Dipeptidyl peptidase 4 is under 5.00; on Dipeptidyl peptidase 2, under 5.30; at Prolyl endopeptidase, under 5.00.
As for `CC(C)(C)NC(=O)NC12CC3CC(CC(NCC(=O)N4Cc5cc(F)c(F)cc5C4)(C3)C1)C2`, the pIC50 against Dipeptidyl peptidase 4 is under 5.00; at Dipeptidyl peptidase 2, under 5.30; at Prolyl endopeptidase, under 5.00; on Dipeptidyl peptidase 8, 5.89.
As to `O=C(NC12CC3CC(CC(C3)C1)C2)NC12CC3CC(CC(NCC(=O)N4Cc5ccccc5C4)(C3)C1)C2`, the pIC50 was under 5.00 against Dipeptidyl peptidase 4, under 5.30 at Dipeptidyl peptidase 2 and under 5.00 on Prolyl endopeptidase.
As for `O=C(NCCCCO)OC12CC3CC(CC(NCC(=O)N4Cc5ccccc5C4)(C3)C1)C2`, the pIC50 on Dipeptidyl peptidase 4 is under 5.00; at Dipeptidyl peptidase 2, under 5.30; at Dipeptidyl peptidase 9, 6.70; at Prolyl endopeptidase it was under 5.00.
